# Activity calls are given as the source filed them.
# How the values were obtained:
# Mucolipin-3 = target: T1, Mucolipin-3 (Homo sapiens, UniProt Q8TDD5); assay: Dose response cell-based high-throughput screening assay for agonists of the transient receptor potential channel ML3 (TRPML3). [Related pubchem assays: 1526, 1424, 1448 ]; format: functional
# T1 sequence (Q8TDD5 whole entry): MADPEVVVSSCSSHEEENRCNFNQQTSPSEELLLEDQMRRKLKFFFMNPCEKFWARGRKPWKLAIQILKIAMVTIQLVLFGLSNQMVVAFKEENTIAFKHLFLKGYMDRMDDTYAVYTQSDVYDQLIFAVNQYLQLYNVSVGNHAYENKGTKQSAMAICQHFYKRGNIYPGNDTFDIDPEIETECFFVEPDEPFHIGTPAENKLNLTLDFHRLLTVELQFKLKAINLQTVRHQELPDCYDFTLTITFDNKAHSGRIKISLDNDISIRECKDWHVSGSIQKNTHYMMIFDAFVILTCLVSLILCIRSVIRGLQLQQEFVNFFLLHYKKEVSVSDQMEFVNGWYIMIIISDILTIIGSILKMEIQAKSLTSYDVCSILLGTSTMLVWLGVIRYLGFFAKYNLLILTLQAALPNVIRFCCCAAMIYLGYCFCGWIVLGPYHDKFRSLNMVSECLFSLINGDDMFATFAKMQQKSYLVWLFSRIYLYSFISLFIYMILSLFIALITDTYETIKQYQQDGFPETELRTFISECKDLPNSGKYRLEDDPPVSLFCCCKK
# Ion channel NompC = Ion channel NompC (Danio rerio, UniProt Q7T1G6); assay: Fluorescence counterscreen assay for TRPML3 agonists: dose response cell-based high-throughput screening assay to identify agonists of the transient receptor potential channel N1 (TRPN1). [Related pubchem assays: 1526, 1424, 1448 ]; format: functional
# HEK293 [1] = assay: cells; format: functional, cell-based; details: Homo sapiens
# [2] = luciferase reporter signal reduction – luminescence, H4-C neuroglioblastoma cells, dose response (AID 2458); format: functional, cell-based;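 note: H4 neuroglioblastoma cells stably carrying a luciferase reporter gene fusion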
# cells [3] = format: functional, cell-based
# [4] = target: Nucleotide-binding oligomerization domain-containing protein 2 (Homo sapiens, UniProt Q9HC29); assay: inhibition of NOD2-driven NF-kB reporter – cell-based, luminescence, uHTS, HEK293 (AID 1566); format: functional
# [5] = luciferase reporter signal suppression in cells – H4 neuroglioma cells, luminescence, dose response (AID 1990); format: functional, cell-based
# HEK293 [6] = assay: NOD2 signaling inhibitors in MDP-stimulated cells, cell-based, uHTS, luminescence (AID 2001); format: functional; details: Homo sapiens
# [7] = alpha-synuclein stem-loop luciferase translation blockers – H4 neuroglioma cells, luminescence, confirmation (AID 1988); format: functional, cell-based
# [8] = Luminescence Cell-Based Dose Response HTS to Identify Inhibitors of 5'UTR Stem-Loop Driven Prion Protein mRNA Translation in H4 Neuroglioblastoma Cells. [Related pubchem assays: 1827 (Project Summary), 1813 (Primary HTS)]; format: functional
# HEK293 [9] = assay: inhibition of NOD1-driven NF-kB reporter – cell-based, luminescence, uHTS, primary screen (AID 1578); format: functional; details: Homo sapiens
# HEK293 [10] = assay: cells; format: functional, cell-based; details: Homo sapiens; remark: listed apart in the source
# HEK293 [11] = assay: cells; format: functional, cell-based; details: Homo sapiens; remark: listed apart in the source
# [12] = alpha-synuclein stem-loop translation blockers – luminescence, H4 neuroglioblastoma cells, dose confirmation, confirmation (AID 2454); format: functional, cell-based;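 note: H4 neuroglioblastoma cells carrying an alpha-synuclein 5'UTR luciferase reporter; potency for inhibition of the luciferase signal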
# Aminopeptidase N = target: T2, Aminopeptidase N (Plasmodium falciparum FcB1/Columbia, UniProt O96935); assay: malaria alanyl aminopeptidase activity blockers – biochemical, fluorogenic H-Leu-NHMec substrate, 1536-well (AID 1445); design: species or system Plasmodium falciparum 3D7, 3D7
# T2 sequence (O96935 whole entry): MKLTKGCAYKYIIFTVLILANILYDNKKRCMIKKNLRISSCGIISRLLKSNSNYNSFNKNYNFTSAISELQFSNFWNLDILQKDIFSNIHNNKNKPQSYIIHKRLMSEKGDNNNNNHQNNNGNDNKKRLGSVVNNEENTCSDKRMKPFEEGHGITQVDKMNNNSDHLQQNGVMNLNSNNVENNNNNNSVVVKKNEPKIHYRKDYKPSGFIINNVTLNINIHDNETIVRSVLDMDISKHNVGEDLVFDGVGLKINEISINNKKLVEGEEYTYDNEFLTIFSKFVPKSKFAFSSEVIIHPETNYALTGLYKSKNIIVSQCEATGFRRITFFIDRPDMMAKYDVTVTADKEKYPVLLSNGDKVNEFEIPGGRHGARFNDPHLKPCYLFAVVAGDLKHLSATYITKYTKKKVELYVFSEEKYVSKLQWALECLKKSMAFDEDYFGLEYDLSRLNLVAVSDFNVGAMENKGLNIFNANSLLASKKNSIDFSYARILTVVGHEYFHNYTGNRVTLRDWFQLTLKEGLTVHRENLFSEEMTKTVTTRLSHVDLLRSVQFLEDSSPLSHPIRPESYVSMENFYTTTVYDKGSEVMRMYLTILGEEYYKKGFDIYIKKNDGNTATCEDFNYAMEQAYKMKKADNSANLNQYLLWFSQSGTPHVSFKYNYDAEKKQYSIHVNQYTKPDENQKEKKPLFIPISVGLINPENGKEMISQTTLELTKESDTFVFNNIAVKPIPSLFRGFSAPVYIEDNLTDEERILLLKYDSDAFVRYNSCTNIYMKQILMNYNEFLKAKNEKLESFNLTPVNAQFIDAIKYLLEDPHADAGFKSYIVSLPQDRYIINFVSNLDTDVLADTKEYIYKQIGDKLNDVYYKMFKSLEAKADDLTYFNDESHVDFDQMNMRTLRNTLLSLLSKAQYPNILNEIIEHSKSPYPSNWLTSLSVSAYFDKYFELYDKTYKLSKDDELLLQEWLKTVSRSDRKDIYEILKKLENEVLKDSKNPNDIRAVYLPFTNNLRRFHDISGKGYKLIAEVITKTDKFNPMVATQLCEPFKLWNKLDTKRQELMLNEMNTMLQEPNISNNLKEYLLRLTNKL
# [13] = toxicity toward HepG2 liver cells – cell-based, plate reader, cherry-pick, antagonist series, cytotoxicity control, dose response (AID 743416); format: functional
# [14] = blockade of melanocortin 4 receptor signaling – cell-based, plate reader, cherry pick, counter-screen for LGR2 antagonist project, dose response (AID 743444); format: functional;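 note: transfected HEK 293 cells stimulated with alpha-MSH peptide; potency of inhibitors of the alpha-MSH evoked signal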
# [15] = blockers of bursicon-stimulated LGR2 cAMP reporter – cell-based, HEK293, CRE-luciferase reporter, cherry pick, set 2, dose response (AID 743343); format: functional;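 note: transfected cells were stimulated with diluted bursicon conditioned medium after compound addition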
# INS1 = assay: INS-1E survival protection against cytokine death – cell-based, luminescence, retest, dose response (AID 449756); format: functional; details: Rattus norvegicus;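 note: cell death triggered by IL-1 beta plus TNF-alpha plus IFN-gamma mixture; protective hits raise ATP signal compared with cytokine alone wells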
# [16] = A549 cell cytotoxicity, dose response, cytotoxicity control, plate reader, cherry-pick, antagonist series (AID 743412); format: functional, cell-based
# Protein Tat = target: T3, Protein Tat (Human immunodeficiency virus type 1 group M subtype B (isolate HXB2)(HIV-1), UniProt P04608); format: functional;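 note: tat binding to TAR RNA read out by fluorescence polarization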
# T3 sequence (P04608 whole entry): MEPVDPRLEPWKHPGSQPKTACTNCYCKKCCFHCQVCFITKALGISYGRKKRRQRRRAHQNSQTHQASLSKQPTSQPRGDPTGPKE
# [17] = NIH3T3 cell viability loss – ATP luminescence, mouse fibroblasts, counter-screen, dose response (AID 2010); format: functional, cell-based;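 note: cells exposed to compound for about 90 hours before reading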
# [18] = fluconazole-exposed Candida albicans growth modulators – fluorescence, retest, confirmation (AID 2467); format: functional, cell-based
# cells [19] = assay: cells
# [20] = Trypanosoma cruzi growth suppression in host cells – NIH3T3 host cells, beta-gal luminescence, confirmation (AID 2044); format: functional, cell-based;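 note: intracellular parasites grown in NIH/3T3 mouse fibroblasts as host cells; luminescent beta-galactosidase reporter signal from transgenic T. cruzi replicating inside host cells; inhibitors lower the luminescence signal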
# [21] = NIH-3T3 fibroblast cytotoxicity, dose response, cytotoxicity control, cell-based, fluorescence, Alamar Blue, secondary assay (AID 2327); format: functional;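 note: NIH-3T3 mouse fibroblasts cultured with fluconazole at 8 µg/mL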
# Large T antigen = Large T antigen (Simian virus 40, UniProt P03070); format: functional, Betapolyomavirus macacae;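 note: Confirmatory-stage PubChem screen for compounds that inhibit SV40 T antigen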
# [22] = target: T4, Short transient receptor potential channel 4 (Mus musculus, UniProt Q9QUQ5); assay: block of DAMGO-driven TRPC4 calcium entry – cell-based, HEK293 TRPC4/mu-opioid, Fluo-4 calcium, dose response (AID 434942); format: functional;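 note: potency of inhibitors blocking the TRPC4 calcium response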
# T4 sequence (Q9QUQ5 whole entry): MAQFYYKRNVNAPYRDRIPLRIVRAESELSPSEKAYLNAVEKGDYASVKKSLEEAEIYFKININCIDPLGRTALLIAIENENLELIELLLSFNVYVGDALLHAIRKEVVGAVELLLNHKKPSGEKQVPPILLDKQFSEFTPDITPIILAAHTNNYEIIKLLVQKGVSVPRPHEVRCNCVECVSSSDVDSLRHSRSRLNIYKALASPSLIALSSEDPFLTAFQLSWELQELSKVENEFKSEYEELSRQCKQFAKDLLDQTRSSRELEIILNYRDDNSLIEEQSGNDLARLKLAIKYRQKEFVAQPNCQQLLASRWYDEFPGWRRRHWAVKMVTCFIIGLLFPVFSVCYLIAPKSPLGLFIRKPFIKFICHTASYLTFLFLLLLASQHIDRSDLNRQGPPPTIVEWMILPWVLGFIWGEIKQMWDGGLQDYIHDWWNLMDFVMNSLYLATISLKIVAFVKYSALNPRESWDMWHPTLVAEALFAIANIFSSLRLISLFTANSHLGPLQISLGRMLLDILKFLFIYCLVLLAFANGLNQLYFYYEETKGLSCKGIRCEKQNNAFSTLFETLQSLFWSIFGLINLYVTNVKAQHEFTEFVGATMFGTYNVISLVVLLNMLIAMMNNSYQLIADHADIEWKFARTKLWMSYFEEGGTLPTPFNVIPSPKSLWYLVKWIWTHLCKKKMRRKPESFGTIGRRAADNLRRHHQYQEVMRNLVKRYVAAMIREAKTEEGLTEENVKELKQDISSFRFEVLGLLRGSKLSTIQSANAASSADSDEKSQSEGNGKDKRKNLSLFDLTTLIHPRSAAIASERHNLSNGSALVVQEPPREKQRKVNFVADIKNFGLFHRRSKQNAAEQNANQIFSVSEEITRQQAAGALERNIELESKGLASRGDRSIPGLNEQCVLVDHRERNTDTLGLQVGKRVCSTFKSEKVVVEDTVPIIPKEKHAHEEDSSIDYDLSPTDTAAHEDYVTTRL
# Estrogen receptor beta = Estrogen receptor beta (Homo sapiens, UniProt Q92731); assay: blockers of SRC-3 recruitment to ERβ – biochemical, ELISA, streptavidin-HRP readout, orthogonal assay, confirmation (AID 1060)
# Estrogen receptor beta, sequence (Q92731 whole entry): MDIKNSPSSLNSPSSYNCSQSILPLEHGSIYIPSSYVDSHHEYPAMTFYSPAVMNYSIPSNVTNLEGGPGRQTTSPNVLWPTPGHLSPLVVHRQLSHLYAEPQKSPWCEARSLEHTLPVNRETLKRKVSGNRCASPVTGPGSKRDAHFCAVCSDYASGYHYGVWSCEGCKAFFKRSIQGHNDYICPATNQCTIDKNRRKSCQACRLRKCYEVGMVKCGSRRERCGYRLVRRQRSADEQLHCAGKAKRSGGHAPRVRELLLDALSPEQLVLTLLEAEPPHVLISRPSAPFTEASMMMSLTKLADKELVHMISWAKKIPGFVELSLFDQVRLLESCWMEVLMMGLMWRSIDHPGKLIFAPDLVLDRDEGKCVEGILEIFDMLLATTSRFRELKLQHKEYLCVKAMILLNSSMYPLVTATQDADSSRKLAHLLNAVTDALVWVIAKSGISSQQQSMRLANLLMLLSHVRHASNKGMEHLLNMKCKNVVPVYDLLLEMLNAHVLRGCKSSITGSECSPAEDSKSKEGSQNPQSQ
# Ion channel NompC, sequence (Q7T1G6 whole entry): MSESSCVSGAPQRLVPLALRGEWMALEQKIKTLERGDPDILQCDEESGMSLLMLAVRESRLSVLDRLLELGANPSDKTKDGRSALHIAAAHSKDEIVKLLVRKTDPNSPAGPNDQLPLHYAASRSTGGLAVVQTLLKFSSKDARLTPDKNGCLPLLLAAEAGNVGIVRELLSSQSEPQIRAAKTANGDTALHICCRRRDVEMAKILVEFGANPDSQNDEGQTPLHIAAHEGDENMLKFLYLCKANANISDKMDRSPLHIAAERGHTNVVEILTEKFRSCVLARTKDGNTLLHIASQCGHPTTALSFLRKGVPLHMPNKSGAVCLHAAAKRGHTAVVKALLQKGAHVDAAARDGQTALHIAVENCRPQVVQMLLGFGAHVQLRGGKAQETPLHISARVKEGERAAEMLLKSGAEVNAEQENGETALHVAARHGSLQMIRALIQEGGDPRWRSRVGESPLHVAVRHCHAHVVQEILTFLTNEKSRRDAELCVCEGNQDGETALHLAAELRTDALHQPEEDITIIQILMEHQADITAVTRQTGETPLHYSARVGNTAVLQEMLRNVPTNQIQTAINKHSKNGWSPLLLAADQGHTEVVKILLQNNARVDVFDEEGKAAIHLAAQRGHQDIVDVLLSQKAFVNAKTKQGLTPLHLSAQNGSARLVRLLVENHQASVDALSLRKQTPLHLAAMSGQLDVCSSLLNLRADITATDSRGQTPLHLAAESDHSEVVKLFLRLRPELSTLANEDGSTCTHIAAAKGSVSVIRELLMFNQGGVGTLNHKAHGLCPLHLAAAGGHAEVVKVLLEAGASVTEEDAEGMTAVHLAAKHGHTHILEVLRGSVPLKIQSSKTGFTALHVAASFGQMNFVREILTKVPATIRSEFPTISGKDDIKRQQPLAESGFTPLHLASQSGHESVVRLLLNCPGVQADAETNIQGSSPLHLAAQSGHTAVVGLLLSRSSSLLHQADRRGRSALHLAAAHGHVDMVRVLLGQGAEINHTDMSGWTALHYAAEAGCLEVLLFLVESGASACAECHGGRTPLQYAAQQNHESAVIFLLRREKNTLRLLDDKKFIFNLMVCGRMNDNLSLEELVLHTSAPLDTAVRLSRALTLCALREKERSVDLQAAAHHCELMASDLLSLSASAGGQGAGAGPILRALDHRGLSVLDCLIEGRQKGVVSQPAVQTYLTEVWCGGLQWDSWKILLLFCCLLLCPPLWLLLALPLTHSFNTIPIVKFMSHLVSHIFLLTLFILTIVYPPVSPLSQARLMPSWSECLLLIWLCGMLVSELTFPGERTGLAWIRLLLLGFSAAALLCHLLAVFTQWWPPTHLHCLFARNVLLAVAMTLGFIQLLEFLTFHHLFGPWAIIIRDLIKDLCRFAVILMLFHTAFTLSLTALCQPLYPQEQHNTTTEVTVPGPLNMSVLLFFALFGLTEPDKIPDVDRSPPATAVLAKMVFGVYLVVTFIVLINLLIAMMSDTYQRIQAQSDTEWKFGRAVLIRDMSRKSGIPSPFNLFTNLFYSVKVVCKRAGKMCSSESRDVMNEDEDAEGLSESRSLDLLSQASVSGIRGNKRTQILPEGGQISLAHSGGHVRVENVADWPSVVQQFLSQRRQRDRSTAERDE
# Nucleotide-binding oligomerization domain-containing protein 2, sequence (Q9HC29 whole entry, the tested form may be a part): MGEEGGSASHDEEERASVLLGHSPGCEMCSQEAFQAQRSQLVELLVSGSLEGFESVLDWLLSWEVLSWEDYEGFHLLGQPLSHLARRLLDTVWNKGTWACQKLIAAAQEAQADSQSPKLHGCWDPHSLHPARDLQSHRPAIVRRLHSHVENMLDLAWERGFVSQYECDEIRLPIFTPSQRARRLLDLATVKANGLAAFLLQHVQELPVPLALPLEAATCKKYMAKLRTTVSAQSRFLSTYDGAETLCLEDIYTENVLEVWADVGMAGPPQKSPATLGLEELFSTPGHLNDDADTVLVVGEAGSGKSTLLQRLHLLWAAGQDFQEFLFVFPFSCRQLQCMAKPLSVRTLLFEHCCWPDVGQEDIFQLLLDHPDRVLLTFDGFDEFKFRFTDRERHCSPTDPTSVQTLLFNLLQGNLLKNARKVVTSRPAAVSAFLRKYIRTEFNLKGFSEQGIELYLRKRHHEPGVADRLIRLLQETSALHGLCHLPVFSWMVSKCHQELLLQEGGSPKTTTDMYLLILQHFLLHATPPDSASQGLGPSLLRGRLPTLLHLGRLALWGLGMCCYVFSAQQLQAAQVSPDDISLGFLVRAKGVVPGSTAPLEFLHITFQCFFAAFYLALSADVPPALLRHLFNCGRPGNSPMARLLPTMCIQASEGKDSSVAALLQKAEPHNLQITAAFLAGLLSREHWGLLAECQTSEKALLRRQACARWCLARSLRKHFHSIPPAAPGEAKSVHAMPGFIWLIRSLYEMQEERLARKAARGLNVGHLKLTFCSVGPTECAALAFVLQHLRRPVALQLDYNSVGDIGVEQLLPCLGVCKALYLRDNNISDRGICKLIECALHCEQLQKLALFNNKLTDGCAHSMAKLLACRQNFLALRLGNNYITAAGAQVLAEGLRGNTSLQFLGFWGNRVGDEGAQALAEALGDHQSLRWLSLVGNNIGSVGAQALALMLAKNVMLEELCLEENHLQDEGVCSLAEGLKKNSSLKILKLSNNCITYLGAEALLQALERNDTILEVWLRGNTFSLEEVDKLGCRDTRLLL
# Large T antigen, sequence (P03070 whole entry): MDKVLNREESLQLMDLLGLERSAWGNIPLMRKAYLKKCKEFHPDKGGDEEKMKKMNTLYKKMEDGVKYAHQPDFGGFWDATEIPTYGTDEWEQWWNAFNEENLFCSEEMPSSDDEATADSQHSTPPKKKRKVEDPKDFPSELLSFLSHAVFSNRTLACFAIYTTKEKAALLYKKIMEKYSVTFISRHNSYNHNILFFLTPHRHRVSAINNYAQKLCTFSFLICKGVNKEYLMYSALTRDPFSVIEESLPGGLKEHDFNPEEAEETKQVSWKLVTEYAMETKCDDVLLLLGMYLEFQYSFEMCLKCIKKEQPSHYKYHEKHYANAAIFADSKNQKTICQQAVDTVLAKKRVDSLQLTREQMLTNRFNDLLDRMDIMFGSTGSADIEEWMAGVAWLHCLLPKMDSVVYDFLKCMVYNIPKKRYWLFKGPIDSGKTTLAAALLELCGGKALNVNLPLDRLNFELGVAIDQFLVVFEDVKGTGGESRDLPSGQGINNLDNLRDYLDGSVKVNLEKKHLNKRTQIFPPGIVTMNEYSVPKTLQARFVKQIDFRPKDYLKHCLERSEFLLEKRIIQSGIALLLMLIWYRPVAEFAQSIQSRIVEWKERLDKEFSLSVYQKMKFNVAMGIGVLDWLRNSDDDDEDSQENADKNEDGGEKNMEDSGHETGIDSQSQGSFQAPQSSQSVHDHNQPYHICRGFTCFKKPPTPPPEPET
smiles,measurement,setting,value
COc1ccc(N(C)S(=O)(=O)c2ccc(C)cc2)c([N+](=O)[O-])c1,EC50,Mucolipin-3,3.13 µM (active)
same,EC50,Ion channel NompC,> 29.9 µM (not active)
O=C(C1=C(O)C(=O)N(c2nccs2)C1c1ccccc1)c1ccc2c(c1)OCCO2 (centres undefined),IC50,HEK293 [1],> 20 µM (inactive)
same,EC50,[2],4.2 µM (active)
same,EC50,cells [3],1.11 µM (active)
same,EC50,[4],5.45 µM (active)
same,EC50,[5],0.146 µM (active)
same,IC50,HEK293 [6],18.6 µM (inactive)
same,EC50,[7],7.17 µM (active)
same,EC50,[8],< 0.1 µM (active)
same,EC50,HEK293 [9],11.5 µM (active)
same,IC50,HEK293 [10],> 20 µM (inactive)
same,IC50,HEK293 [11],> 20 µM (inactive)
same,EC50,[12],1.93 µM (active)
O=C(NN1C(=O)c2ccccc2NC1c1ccco1)c1ccccc1 (centres undefined),IC50,Aminopeptidase N,61.3 µM (active)
O=C(CN1C(=O)c2ccccc2S1(=O)=O)c1ccc(F)cc1,EC50,[2],1.12 µM (active)
same,EC50,cells [3],1.87 µM (active)
same,AC50,[13],> 52 µM (inactive)
same,EC50,[5],11.4 µM (active)
same,AC50,[14],3.02 µM (active)
same,EC50,[7],5.89 µM (active)
same,AC50,[15],2.75 µM (active)
same,EC50,[8],< 0.1 µM (active)
same,AC50,INS1,> 260 µM (inactive)
same,AC50,[16],> 52 µM (inactive)
same,EC50,[12],2.32 µM (active)
Cc1cc(C(C)c2ccccc2)c(O)c(CN2CCOCC2)c1C (centres undefined),EC50,Mucolipin-3,5.07 µM (active)
same,EC50,Ion channel NompC,> 29.9 µM (not active)
same,IC50,Protein Tat,> 100 µM (active)
CCCC[n+]1c2ccccc2cc2ccccc21,EC50,[17],> 60 µM (not active)
same,EC50,[18],0.604 µM (active)
same,EC50,cells [19],0.041 µM (active)
same,EC50,[20],< 0.1 µM (active)
same,EC50,[21],> 150 µM (inactive)
same,IC50,Large T antigen,42.4 µM (active)
same,EC50,[22],4.22 µM (active)
O=S(=O)(c1ccccc1)C1(S(=O)(=O)c2ccccc2)CCCC1,EC50,Mucolipin-3,5.62 µM (active)
same,EC50,Ion channel NompC,> 29.9 µM (not active)
CN1CCN(CC(=O)Nc2sc3c(c2C#N)CCCC3)CC1,IC50,Estrogen receptor beta,15 µM (not active)
